Key:
[1] = The drug is tested on Collinsella aerofaciens strain: ATCC25986 for biotransformation. The drug concentrations were measured before and after a 12-h incubation by liquid-chromatography-coupled mass spectrometry (LC–MS); conditions: 2 µM
[2] = The drug is tested on Eggerthella lenta strain: ATCC25559 for biotransformation. The drug concentrations were measured before and after a 12-h incubation by liquid-chromatography-coupled mass spectrometry (LC–MS); conditions: 2 µM
[3] = The drug is tested on Bacteroides coprophilus strain: DSM18228 for biotransformation. The drug concentrations were measured before and after a 12-h incubation by liquid-chromatography-coupled mass spectrometry (LC–MS); conditions: 2 µM
[4] = The drug is tested on Ruminococcus lactaris strain: ATCC29176 for biotransformation. The drug concentrations were measured before and after a 12-h incubation by liquid-chromatography-coupled mass spectrometry (LC–MS); conditions: 2 µM
[5] = The drug is tested on Subdoligranulum variabile strain: DSM15176 for biotransformation. The drug concentrations were measured before and after a 12-h incubation by liquid-chromatography-coupled mass spectrometry (LC–MS); conditions: 2 µM
[6] = The drug is tested on Escherichia coli strain: BW25113 for biotransformation. The drug concentrations were measured before and after a 12-h incubation by liquid-chromatography-coupled mass spectrometry (LC–MS); conditions: 2 µM
[7] = victivallis vadensis, 12 h, 2 µM
Description: The drug is tested on Victivallis vadensis strain: ATCC BAA-548 for biotransformation. The drug concentrations were measured before and after a 12-h incubation by liquid-chromatography-coupled mass spectrometry (LC–MS)

[8] = The drug is tested on Bacteroides fragilis strain: T(B)9 for biotransformation. The drug concentrations were measured before and after a 12-h incubation by liquid-chromatography-coupled mass spectrometry (LC–MS); conditions: 2 µM
[9] = The drug is tested on Providencia alcalifaciens strain: DSM30120 for biotransformation. The drug concentrations were measured before and after a 12-h incubation by liquid-chromatography-coupled mass spectrometry (LC–MS); conditions: 2 µM
[10] = The drug is tested on Eubacterium biforme strain: DSM3989 for biotransformation. The drug concentrations were measured before and after a 12-h incubation by liquid-chromatography-coupled mass spectrometry (LC–MS); conditions: holdemanella biformis, 2 µM
[11] = clostridioides difficile, 12 h, 2 µM
Description: The drug is tested on Clostridium difficile strain: 120 for biotransformation. The drug concentrations were measured before and after a 12-h incubation by liquid-chromatography-coupled mass spectrometry (LC–MS)

[12] = The drug is tested on Clostridium spiroforme strain: DSM1552 for biotransformation. The drug concentrations were measured before and after a 12-h incubation by liquid-chromatography-coupled mass spectrometry (LC–MS); conditions: thomasclavelia spiroformis, 2 µM

SMILES	Bacterial Biotransformation [1]	Bacterial Biotransformation [2]	Bacterial Biotransformation [3]	Bacterial Biotransformation [4]	Bacterial Biotransformation [5]	Bacterial Biotransformation [6]	Bacterial Biotransformation [7]	Bacterial Biotransformation [8]	Bacterial Biotransformation [9]	Bacterial Biotransformation [10]	Bacterial Biotransformation [11]	Bacterial Biotransformation [12]
CCN(CC)C(=O)C1(c2ccccc2)CC1CN (stereo not given)	Compound NOT metabolized	Compound NOT metabolized	Compound NOT metabolized	Compound NOT metabolized	Compound NOT metabolized	Compound NOT metabolized	Compound NOT metabolized	–	–	–	–	–
CN1[C@@H]2CC[C@H]1C[C@@H](OC(=O)C(CO)c1ccccc1)C2 (stereo not given in full) [ATROPINE]	Compound NOT metabolized	Compound NOT metabolized	Compound NOT metabolized	–	Compound NOT metabolized	–	–	Compound NOT metabolized	Compound NOT metabolized	–	–	–
Cc1nc(Nc2ncc(C(=O)Nc3c(C)cccc3Cl)s2)cc(N2CCN(CCO)CC2)n1.O [DASATINIB]	Compound NOT metabolized	Compound NOT metabolized	Compound NOT metabolized	Compound NOT metabolized	Compound metabolized	Compound NOT metabolized	Compound NOT metabolized	–	–	–	–	–
CN1CCN(C(=O)O[C@H]2c3nccnc3C(=O)N2c2ccc(Cl)cn2)CC1 [ESZOPICLONE]	Compound metabolized	Compound NOT metabolized	Compound NOT metabolized	Compound NOT metabolized	Compound NOT metabolized	Compound NOT metabolized	Compound NOT metabolized	–	–	–	–	–
CC(C)(C(=O)O)c1ccc(C(O)CCCN2CCC(C(O)(c3ccccc3)c3ccccc3)CC2)cc1 (stereo not given) [FEXOFENADINE]	Compound NOT metabolized	–	Compound NOT metabolized	–	–	–	–	Compound NOT metabolized	Compound NOT metabolized	Compound NOT metabolized	Compound NOT metabolized	–
OCCN1CCN(CCCN2c3ccccc3Sc3ccc(C(F)(F)F)cc32)CC1 [FLUPHENAZINE]	Compound NOT metabolized	Compound NOT metabolized	Compound NOT metabolized	Compound NOT metabolized	Compound NOT metabolized	Compound metabolized	Compound NOT metabolized	–	–	–	–	–
Cc1ccc(S(=O)(=O)NC(=O)NN2CC3CCCC3C2)cc1 (stereo not given) [GLICLAZIDE]	Compound NOT metabolized	Compound NOT metabolized	Compound NOT metabolized	Compound NOT metabolized	Compound NOT metabolized	Compound NOT metabolized	Compound NOT metabolized	–	–	–	–	–
O=C(CCCN1CCC(O)(c2ccc(Cl)cc2)CC1)c1ccc(F)cc1 [HALOPERIDOL]	Compound NOT metabolized	–	–	Compound NOT metabolized	Compound NOT metabolized	Compound NOT metabolized	–	–	Compound NOT metabolized	Compound NOT metabolized	Compound NOT metabolized	Compound NOT metabolized
COC1=C(OC)C(=O)C(CCCCCCCCCCO)=C(C)C1=O [IDEBENONE]	Compound NOT metabolized	Compound NOT metabolized	Compound NOT metabolized	Compound metabolized	Compound metabolized	Compound NOT metabolized	Compound NOT metabolized	–	–	–	–	–
Cc1ccc(NC(=O)c2ccc(CN3CCN(C)CC3)cc2)cc1Nc1nccc(-c2cccnc2)n1 [IMATINIB]	Compound NOT metabolized	Compound NOT metabolized	Compound NOT metabolized	Compound NOT metabolized	–	–	–	Compound NOT metabolized	Compound NOT metabolized	Compound NOT metabolized	–	Compound NOT metabolized

Source: ChEMBL document CHEMBL5303573, “Mapping human microbiome drug metabolism by gut bacteria and their genes” (Nature, 2019)
